Assays:
HCT-116 cell line = assay: MTT anti-proliferative assay; assay type: cell-based; conditions: Homo sapiens, 48 h of incubation, mean ± SD of three experiments
Protocol: (§1) A549 (non-small cell lung cancer cell line) and HCT-116 (human colon cancer cell line), were obtained from American Type Culture Collection (Manassas, VA, USA). The cells were maintained in Dulbecco’s Modified Eagle’s Medium (DMEM) (Sigma-Aldrich, St. Louis, MO), and supplemented with 10% heat-inactivated FBS (Hyclone), 10 μg/mL of insulin (Manufacturer, Sigma, St. Louis, MO, USA), and 1% penicillin-streptomycin. MTT assay[29] was adopted to assess the in vitro antitumor activity of the newly synthesized pyridines 5a–l according to the reported procedures, using Doxorubicin as a standard treatment. Experimental conditions were tested using three replicates (three wells of the 96-well plate per experimental condition) and all experiments were carried out in triplicates. IC50 values were calculated by the use of the equation for Boltzman sigmoidal concentration–response curve using the nonlinear regression fitting models by Graph Pad, Prism version 5 (GraphPad Software Inc., La Jolla, CA).
(§2) All newly synthesized pyridines 5a–l were examined for their anti-proliferative activity towards two cancer cell lines: non-small cell lung cancer A549 cell line and colon cancer HCT-116 cell line. The MTT colorimetric assay was adopted to assess the anti-proliferative activity as described by Mosmann[29]. Doxorubicin was used as a control in this assay.

A549 cell line = assay: MTT anti-proliferative assay; assay type: cell-based; conditions: Homo sapiens, 48 h of incubation, mean ± SD of three experiments
Protocol: as §1, §2

WI-38 cell line = assay: MTT cytotoxicity towards non-tumorigenic cells; assay type: cell-based, human; conditions: for IC50: WI-38, MTT, non-tumorigenic human lung fibroblast, mean ± SD of three experiments; for S. I. WI-38/A549: selectivity index, IC50 WI-38 / IC50 A549
Protocol: The cytotoxic activity of all synthesized pyridines 5a–l were assessed against non-tumorigenic human lung fibroblast WI-38 cell line to investigate their safety, using the MTT colorimetric assay.

Row | IC50 (HCT-116 cell line) | IC50 (A549 cell line) | melting point | SMILES | IC50 (WI-38 cell line) | S. I. WI-38/A549 (WI-38 cell line)
1 | 16 ± 1.52 µM | 24.1 ± 1.78 µM | 235 to 237 °C | Cc1nc(-c2ccc(F)cc2)ccc1NC(=O)Nc1cc(C(F)(F)F)cc(C(F)(F)F)c1 [Compound 5b, 1-(3,5-Bis(trifluoromethyl)phenyl)-3-(6-(4-fluorophenyl)-2-methylpyridin-3-yl)urea] | 151 ± 8.12 µM | 6.3
2 | 16.4 ± 1.3 µM | 19.2 ± 2.05 µM | 239 to 241 °C | Cc1nc(-c2cccs2)ccc1NC(=O)Nc1ccc2c(c1)OCO2 [Compound 5k, 1-(Benzo[d][1, 3]dioxol-5-yl)-3-(2-methyl-6-(thiophen-2-yl)pyridin-3-yl)urea] | 139 ± 10.4 µM | 7.2
3 | 3.1 ± 0.22 µM | 2.93 ± 0.28 µM | – | COc1cccc2c1C(=O)c1c(O)c3c(c(O)c1C2=O)C[C@@](O)(C(=O)CO)C[C@@H]3O[C@H]1C[C@H](N)[C@H](O)[C@H](C)O1 [Doxorubicin, reference compound] | – | –
